Results: ChEMBL document CHEMBL3392994, “Methoxyflavones from Stachys glutinosa with binding affinity to opioid receptors: in silico, in vitro, and in vivo studies” (J Nat Prod, 2015)
The source made the active and inactive calls. No cut-off for these calls is given here.

Key:
[1] = target: Delta-type opioid receptor (Mus musculus, UniProt P32300); test: Displacement of [3H]DPDPE from delta opioid receptor in CD1 mouse whole brain minus cerebellum membranes by liquid scintillation counting; assay type: tissue-based, Membrane
Mu-type opioid receptor = Mu-type opioid receptor (Mus musculus, UniProt P42866); test: Displacement of [3H]DAMGO from mu opioid receptor in CD1 mouse whole brain minus cerebellum membranes by liquid scintillation counting; assay type: tissue-based, Membrane
Mus musculus [2] = species: Mus musculus; test: Selectivity ratio of Ki for delta opioid receptor in CD1 mouse whole brain minus cerebellum membranes to Ki for mu opioid receptor in CD1 mouse whole brain minus cerebellum membranes; assay type: tissue-based
Mus musculus [3] = test: Inhibition of morphine-induced analgesia in CD1 mouse model at 80 mg/kg, ip pretreated 30 mins before 5 mg/kg, sc morphine injection and measured 30 to 120 mins after morphine treatment by tail-flick assay relative to control; assay type: functional, organism-based
Mus musculus [4] = test: Inhibition of morphine-induced analgesia in CD1 mouse model at 40 mg/kg, ip pretreated 30 mins before 5 mg/kg, sc morphine injection and measured 30 to 120 mins after morphine treatment by tail-flick assay relative to control; assay type: functional, organism-based
Mus musculus [5] = test: Analgesic activity in acute pain CD1 mouse model assessed as withdrawal latency from radiant heat source at 40 to 80 mg/kg, ip by tail-flick assay; assay type: functional, organism-based

Row | Compound | Ki [1] | Ki (Mu-type opioid receptor) | Ratio Ki (Mus musculus [2]) | inhibition (Mus musculus [3]) | inhibition (Mus musculus [4]) | Activity (Mus musculus [5])
1 | C=CC(C)(O)CC[C@@]1(C)[C@H](C)CC[C@]2(C)[C@@H]1C[C@@H](O)[C@H]1O[C@]12C (stereo partly drawn) | 25 µM | > 50 µM | – | – | – | –
2 | COc1cc(-c2cc(=O)c3c(O)c(OC)c(OC)c(OC)c3o2)ccc1O | 37.5 µM | > 50 µM | – | – | – | –
3 | COc1ccc(-c2cc(=O)c3c(O)c(OC)c(OC)c(OC)c3o2)cc1 [GARDENIN B] | > 50 µM | > 50 µM | – | – | – | –

These reach a lower Ki [1]. Values come first.

Row | Ki [1] | Ki (Mu-type opioid receptor) | Ratio Ki (Mus musculus [2]) | Compound | inhibition (Mus musculus [3]) | inhibition (Mus musculus [4]) | Activity (Mus musculus [5])
4 | 23.5 µM | 40.5 µM | – | C=CC(C)(O)CC[C@@]1(C)[C@H](C)CC[C@@]2(C)C(C)=CC(=O)C[C@H]12 (stereo partly drawn) | – | – | –
5 | 12 µM | 28 µM | 0.43 | COc1ccc(-c2cc(=O)c3c(O)c(OC)c(O)cc3o2)cc1OC [EUPATILIN] | – | – | –
6 | 12.5 µM | 18.5 µM | 0.68 | COc1c(OC)c(O)c2c(=O)cc(-c3ccc(O)c(O)c3)oc2c1OC [SIDERITIFLAVONE] | – | – | –
7 | 7 µM | 16.3 µM | 0.43 | COc1ccc(-c2cc(=O)c3c(OC)c(OC)c(OC)c(OC)c3o2)cc1 [TANGERETIN] | – | – | –
8 | 3.6 µM | 0.83 µM | 4.36 | COc1c(OC)c(O)c2c(=O)cc(-c3ccc(O)cc3)oc2c1OC [XANTHOMICROL] | Active | inactive | inactive
